Assay results reported in patent US7256205B2, “Nitrosated and nitrosylated H2 receptor antagonist compounds, compositions and methods of use” (NitroMed, Inc., priority 1998, dated 2007).
“Also recorded” adds a separate entry of the source.

System: gastric lesions produced by the ethanol/HCl mixture
Test: ethanol/HCl mixture-induced gastric lesion test in rats
Format: in vivo, Male Sprague Dawley rats
Conditions: oral gavage 30 min before 60% ethanol in 150 mM HCl, lesions scored 60 min after
Experimental: The ethanol/HCl mixture-induced gastric lesion test in rats described by Takeuchi et al, J. Pharmacol. Exp. Ther., 286: 115-121 (1998), was used to evaluate the gastric lesion activity. Male Sprague Dawley rats (Charles River Laboratories, Wilmington, Mass.) weighing 230-250 g were used for the experiments. The rats were housed with laboratory chow and water ad libitum prior to the study. The rats were fasted for 24 hours with free access to water and then dosed by oral gavage with vehicle or with the test compounds given at a volume of 0.5 ml/100 g body weight. Thirty minutes after oral dosing all the rats received 1 ml of a solution of 60% ethanol in 150 mM HCl intragastrically. Food was withheld after dosing. Sixty minutes after ethanol/HCl, rats were euthanized by pre-charged CO2. The stomachs were dissected along the greater curvature, washed with a directed stream of 0.9% saline and pinned open on a sylgard based petri dish for examination of the hemorrhagic lesions. Gastric lesion score was expressed in mm and calculated by summing the length of each lesion as described by Al-Ghamdi et al, J. Int. Med. Res., 19: 2242 (1991). Results are expressed as the mean±standard error of the mean. Statistical analysis were conducted using ANOVA test followed by a Student-Newman-Keuls post-hoc test using the Abacus Concepts, Super Anova computer program (Abacus Concepts, Inc., Berkeley, Calif.).

SMILES | inhibition of the formation of gastric lesions (gastric lesion score) relative to vehicle alone (160 μmol/kg) | inhibition of the formation of gastric lesions (gastric lesion score) relative to vehicle alone (320 μmol/kg)
CN/C(=N/CCSCc1nc[nH]c1C)NC#N [Cimetidine, reference compound] | failed to significantly inhibit the formation of gastric lesions; also recorded: did not significantly inhibit the formation of gastric lesions | failed to significantly inhibit the formation of gastric lesions; also recorded: did not significantly inhibit the formation of gastric lesions
CNC(=NCCSCc1ncn(C(=O)CC2(SN=O)C3CC4CC(C3)CC2C4)c1C)NC#N (stereo not shown) [Example 1, (2Z)-2-aza-3-(methylamino)-3-((2-((5-methyl-1-(2-(2-(nitrosothio)adamantan-2-yl)acetyl)imidazol-4-yl)methylthio)ethyl)amino)prop-2-enenitrile] | significantly inhibited the formation of gastric lesions | significantly inhibited the formation of gastric lesions
